16 compounds from patent US20160067162A1, “PHOTOPROTECTIVE COMPOUNDS, COMPOSITIONS INCLUDING SAME AND USES THEREOF” (UNIVERSITE DE RENNES 1, priority 2013, published 2016) can be followed below.

Data set [1] is described as follows: UV spectrum measurement in CHCl3 (λmax, molar extinction coefficient). In kind it is physicochemical. The following applies: for λmax exp: 10^−4 M in CHCl3; for ε (molar extinction coefficient at the λmax): 10^−4 M in CHCl3, 1 cm cuvette. The protocol:
The products are diluted in CHCl3 so as to obtain a solution at 10^−4M. The UV spectra are measured using a Uvikon 931 UV-vis spectrophotometer, Serlabo Technologies, Entraigues sur la Sorgue, France. This UV spectrum makes it possible to determine the molar extinction coefficient (mol^−1 L cm^−1) at the λmax by virtue of the Beer-Lambert law: c=A/l×C;
A=value of the absorbance at the λmax; l=length of the cuvette in cm (l=1);
C=concentration of the solution=1×10^−4 mol/l. The theoretical λmax was determined for certain products by DFT calculation.

A short description of data set [2]: SPF measurement, Protocol I (Rennes): simplified O/W emulsion, UV spectrum 200-400 nm. The data set is classed as physicochemical. The following applies: for λc p.I: critical wavelength; for λc p.I / Colipa UVA-PF p.I, at 10% / SPF p.I, at 10%: protocol I; for Colipa UVA-PF p.I, at 10%: product at 10%; for SPF p.I, at 10%: product at 10% in simplified O/W emulsion; for UVA/UVB: ratio of area under the curve 315-400 nm to 280-315 nm. The protocol:
The SPF measurement is carried out according to the following protocol described in Le Dévéhat F., Malargé A., Couteau C., Coiffard L., Legouin B. “Evaluation of a new UV-filter screening method”, 4th symposium of the AFERP “Biodiversity, chimie des substances naturelles et medicaments” [“Biodiversity, chemistry of natural substances and medicaments”] and 3rd Franco-Pakistani symposium, Besançon (France), Jul. 16-17-18, 2010. A solution of each product dissolved in dimethyl sulfoxide is incorporated at 10% into a simplified emulsion of oil-in-water (O/W) type consisting of liquid paraffin, water and SDS at 10%, the whole mixture taken up in absolute ethanol. The UV spectrum of each solution is recorded between 200 nm and 400 nm in a 10 mm quartz cell on a Uvikon 931 UV-vis spectrophotometer and measured in comparison with a control 10% emulsion solution.
The SPF and UVA-PF values are, for the two protocols, calculated from the following equations: […]
where Eλ is the erythemogenic effect of the radiation at the wavelength λ; Sλ is the spectral solar irradiance at the wavelength λ and Tλ is the spectral transmittance of the product at the wavelength λ, λc is the critical wavelength which corresponds to the wavelength at which 90% of the area under the curve (AUC) is integrated between 290 and 400 nm. The UVA/UVB ratio corresponds more specifically to the ratio of the area under the curve between 315 and 400 nm to the area under the curve between 280 and 315 nm.

For `O=C1C=C(c2ccc(Cl)cc2)NCC1` [Compound 1, 6-(4-chlorophenyl)-2,3-dihydropyridin-4(1H)-one], in data set [1], the λmax exp is recorded as 328 nm and the “ε (molar extinction coefficient at the λmax)” value was determined as 8131 L/mol/cm. Further, in data set [2], the “λc p.I” value stood at 366 nm; the “Colipa UVA-PF p.I, at 10%” value came to 3.97 ± 0.15; the “SPF p.I, at 10%” value stood at 2.27 ± 0.06; the UVA/UVB is given as 4.78 ± 0.57.

For the compound `CC(C)(C)OC(=O)NC1=C(c2ccccc2)N(C(=O)OC(C)(C)C)CCC1=O` [Compound 6, tert-butyl 5-(tert-butoxycarbonylamino)-4-oxo-6-phenyl-3,4-dihydropyridine-1(2H)-carboxylate], in data set [1], the λmax exp was found to be 322 nm and the “ε (molar extinction coefficient at the λmax)” value is 11206 L/mol/cm. Further, in data set [2], the “λc p.I” value is 351 nm; the “Colipa UVA-PF p.I, at 10%” value worked out at 1.56 ± 0.04; the “SPF p.I, at 10%” value was determined as 2.04 ± 0.09; the UVA/UVB worked out at 1.24 ± 0.0.

For `CCOC(=O)/C=C/C1=C(c2ccccc2)N(C(=O)OC(C)(C)C)CCC1=O` [Compound 7, (E)-tert-butyl 5-(3-ethoxy-3-oxoprop-1-enyl)-4-oxo-6-phenyl-3,4-dihydropyridine-1(2H)-carboxylate], in data set [1], the λmax exp worked out at 343 nm and the “ε (molar extinction coefficient at the λmax)” value was found to be 15426 L/mol/cm. For the same compound, in data set [2], the “λc p.I” value came out at 375 nm; the “Colipa UVA-PF p.I, at 10%” value came out at 2.92 ± 0.17; the “SPF p.I, at 10%” value is given as 1.61 ± 0.13; the UVA/UVB is given as 6.36 ± 1.16.

In the case of `CCOC(=O)/C=C/C1=C(c2ccccc2)NCCC1=O` [Compound 8, (E)-ethyl 3-(4-oxo-2-phenyl-1,4,5,6-tetrahydropyridin-3-yl)acrylate], in data set [1], the λmax exp was determined as 306 nm and the “ε (molar extinction coefficient at the λmax)” value was determined as 16596 L/mol/cm. Further, in data set [2], the “λc p.I” value is given as 378 nm; the “Colipa UVA-PF p.I, at 10%” value is 5.38 ± 0.16; the “SPF p.I, at 10%” value amounted to 6.73 ± 0.27; the UVA/UVB amounted to 2.22 ± 0.01.

Turning to `CCOC(=O)/C=C/C1=C(c2ccccc2)N[C@@H](COCc2ccccc2)CC1=O` [Compound 9, (R,E)-ethyl 3-(6-(benzyloxymethyl)-4-oxo-2-phenyl-1,4,5,6-tetrahydropyridin-3-yl)acrylate], in data set [1], the λmax exp is recorded as 308 nm and the “ε (molar extinction coefficient at the λmax)” value is 31339 L/mol/cm. Moreover, in data set [2], the “λc p.I” value is recorded as 353 nm; the “Colipa UVA-PF p.I, at 10%” value is on record as 3.54; the “SPF p.I, at 10%” value turned out to be 5.40 ± 0.43; the UVA/UVB was determined as 1.84.

Turning to `COc1cc(OC)cc(C2=CC(=O)CCN2C(=O)OC(C)(C)C)c1` [Compound 10, tert-butyl 6-(3,5-dimethoxyphenyl)-4-oxo-3,4-dihydropyridine-1(2H)-carboxylate], in data set [1], the λmax exp was 310 nm and the “ε (molar extinction coefficient at the λmax)” value amounted to 18622 L/mol/cm. Besides, in data set [2], the “λc p.I” value worked out at 334 nm; the “Colipa UVA-PF p.I, at 10%” value was 1.88 ± 0.01; the “SPF p.I, at 10%” value is 5.54 ± 0.66; the UVA/UVB was found to be 0.49 ± 0.15.

`COc1ccc2cc(C3=CC(=O)CCN3C(=O)OC(C)(C)C)ccc2c1` [Compound 11, tert-butyl 6-(6-methoxynaphthalen-2-yl)-4-oxo-3,4-dihydropyridine-1(2H)-carboxylate]: in data set [1], the λmax exp came to 331 nm and the “ε (molar extinction coefficient at the λmax)” value came to 14280 L/mol/cm. In addition, in data set [2], the “λc p.I” value stood at 362 nm; the “Colipa UVA-PF p.I, at 10%” value is reported as 4.70 ± 0.42; the “SPF p.I, at 10%” value is listed as 5.50 ± 0.62; the UVA/UVB is 1.92 ± 0.01.

Regarding `CC(C)(C)OC(=O)N1CCC(=O)C=C1c1ccc(Oc2ccccc2)cc1` [Compound 12, tert-butyl 4-oxo-6-(4-phenoxyphenyl)-3,4-dihydropyridine-1(2H)-carboxylate], in data set [1], the λmax exp stood at 316 nm and the “ε (molar extinction coefficient at the λmax)” value was 20575 L/mol/cm. Besides, in data set [2], the “λc p.I” value is on record as 340 nm; the “Colipa UVA-PF p.I, at 10%” value is on record as 1.98 ± 0.05; the “SPF p.I, at 10%” value amounted to 5.31 ± 0.45; the UVA/UVB is 0.71 ± 0.01.

With `COc1ccc2cc(C3=CC(=O)CCN3)ccc2c1` [Compound 15, 6-(6-methoxynaphthalen-2-yl)-2,3-dihydropyridin-4(1H)-one], in data set [1], the λmax exp is 337 nm and the “ε (molar extinction coefficient at the λmax)” value stood at 15578 L/mol/cm. In addition, in data set [2], the “λc p.I” value is listed as 368 nm; the “Colipa UVA-PF p.I, at 10%” value came out at 7.41 ± 1.34; the “SPF p.I, at 10%” value is recorded as 5.89 ± 0.99; the UVA/UVB amounted to 2.65 ± 0.01.

As to `COc1ccccc1C1=CC(=O)CCN1` [Compound 16, 6-(2-methoxyphenyl)-2,3-dihydropyridin-4(1H)-one], in data set [1], the λmax exp is recorded as 333 nm and the “ε (molar extinction coefficient at the λmax)” value stood at 13110 L/mol/cm. Moreover, in data set [2], the “λc p.I” value is 358 nm; the “Colipa UVA-PF p.I, at 10%” value came to 4.96 ± 0.18; the “SPF p.I, at 10%” value is 5.94 ± 0.34; the UVA/UVB turned out to be 2.12.

Turning to `CCCC1=C(/C=C/C(=O)OCC)C(=O)C[C@H](Cc2ccccc2)N1` [Compound 17, (S,E)-ethyl 3-(6-benzyl-4-oxo-2-propyl-1,4,5,6-tetrahydropyridin-3-yl)acrylate], in data set [1], the λmax exp is 316 nm and the “ε (molar extinction coefficient at the λmax)” value came to 20260 L/mol/cm. In data set [2], the “λc p.I” value was 353 nm; the “Colipa UVA-PF p.I, at 10%” value stood at 4.88 ± 0.11; the “SPF p.I, at 10%” value is 13.28 ± 0.66; the UVA/UVB is 1.46 ± 0.01.

Take `CN1C=C(NC(=O)OC(C)(C)C)C(=O)CC1` [Compound 18, tert-butyl 1-methyl-4-oxo-1,4,5,6-tetrahydropyridin-3-ylcarbamate]: in data set [1], the λmax exp is 355 nm and the “ε (molar extinction coefficient at the λmax)” value was determined as 8618 L/mol/cm. Moreover, in data set [2], the “λc p.I” value worked out at 368 nm; the “Colipa UVA-PF p.I, at 10%” value amounted to 3.49 ± 0.17; the “SPF p.I, at 10%” value is reported as 2.67 ± 0.08; the UVA/UVB worked out at 3.05 ± 0.04.

For `CCCCC(CC)COC(=O)c1ccc(Nc2nc(Nc3ccc(C(=O)NC(C)(C)C)cc3)nc(Nc3ccc(C(=O)OCC(CC)CCCC)cc3)n2)cc1` (stereo not shown) [Diethylhexyl Butamido Triazone, reference compound], in data set [2], the “Colipa UVA-PF p.I, at 10%” value is recorded as 1.27 ± 0.01; the “SPF p.I, at 10%” value was 10.10 ± 0.02; the UVA/UVB is recorded as 0.12 ± 0.01.

As to `CC1CC(OC(=O)c2ccccc2O)CC(C)(C)C1` (stereo not shown) [Homosalate, reference compound], in data set [2], the “λc p.I” value is recorded as 323 ± 1 nm; the “Colipa UVA-PF p.I, at 10%” value is 1.08 ± 0.00; the “SPF p.I, at 10%” value is recorded as 1.91 ± 0.04; the UVA/UVB is given as 0.17 ± 0.00.

For `COc1ccc(C(=O)c2ccccc2)c(O)c1` [Oxybenzone, reference compound], in data set [2], the “λc p.I” value is listed as 349 ± 1 nm; the “Colipa UVA-PF p.I, at 10%” value is listed as 2.63 ± 0.01; the “SPF p.I, at 10%” value is on record as 5.27 ± 0.25; the UVA/UVB is on record as 0.98 ± 0.00. The “Colipa UVA-PF p.I, at 10%” value in data set [2] (listed as oxybenzone) came to 2.63.

Take PEG-25 PABA [reference compound]: in data set [2], the “λc p.I” value was 324 ± 1 nm; the “Colipa UVA-PF p.I, at 10%” value is recorded as 1.11 ± 0.01; the “SPF p.I, at 10%” value was found to be 2.04 ± 0.05; the UVA/UVB is 0.19 ± 0.01.
